Experimental data reported in US9968626B2, “Method for treating obesity” (Rhamnopharma Inc., priority 2011, dated 2018).

Experiment: Body weight of allergic-rhinitis-sensitized Balb/C mice after intranasal rhamnolipid doses (Example 1)
Assay type: in vivo
Conditions: 0.5% solution in saline, 5 μl per nostril at two time points on Day 37 (total 20 μl)
Description: Originally, the objective of this study was to determine the effects of treatment with three different pharmaceutical formulations of rhamnolipids within the context of an allergic rhinitis study in mice. However, the weight loss effects due to treatment with the various rhamnolipids were unexpectedly discovered during the course of this study. Materials Animal: Balb/C mice were used in this study and were eight weeks old. The treatment groups and the placebo group were each composed of 10 mice. Allergenization was performed in a similar fashion as reported in the literature. Sensitization Materials: The following were used to sensitize and induce allergic rhinitis in the mice:
Mice were sensitized once-weekly with four intraperitoneal injections of OVA/Alum (Day 0, […], 14 and 21). From Day 22-39, anesthetized mice were administered once-daily doses of the OVA stock solution instilled in each nostril.
On Day 37, mice were assigned to one of three rhamnolipid treatment groups or a placebo group. The rhamnolipid treatment groups received a rhamnolipid mixture containing RPI-100, RPI-200, or RPI-300. […] Body weights of the mice were measured and recorded on Days 35, 37, and 39 as part of a standard animal safety observation protocol. […]

With `CCCCCCCC(CC(=O)O)OC(=O)CC(CCCCCCC)O[C@@H]1O[C@@H](C)[C@H](O)[C@@H](O)[C@H]1O` (stereo partly drawn) [RPI-200, L-rhamnosyl-β-hydroxydecanoyl-β-hydrocydecanoate] the “body weight, 2 days post-treatment (Day 39) compared with 2 days pre-treatment (Day 35), versus placebo” value was “statistically significant reduction in body weight”.
